Where two headings read alike, the source gives them in different places.

The target in one assay is S. schleiferi DXR enzyme (Staphylococcus schleiferi, UniProt A0ABF7SXB4). The assay can be described thus: S. schleiferi DXR enzyme activity and inhibition (NADPH oxidation at 340 nm). It is filed as biochemical. How it is done: . The sequence was confirmed by Sanger sequencing and the plasmid was transformed into E. coli BL21(DE3) pLysS (Life Technologies). Gene expression was induced for 2 h with 1 mM isopropyl-β-D-thiogalactoside (IPTG) and cells were harvested by centrifugation at 4274 x g for 10 min at 4°C. The cell pellet was lysed by sonication in lysis buffer containing 25 mM Tris HCl (pH 7.5), 100 mM NaCl, 20 mM imidazole, 10% glycerol, 1 mM MgCl2, 1 mM dithiothreitol (DTT), 1 mg/mL lysozyme, 75 U benzonase and 1 Complete Mini EDTA-free protease inhibitor tablet (Roche Applied Science). The hexahistidine-tagged DXR protein was affinity purified from soluble lysate via nickel agarose beads (Gold Biotechnology). Bound protein was eluted in 300 mM imidazole, 25 mM Tris HCl (pH 7.5), 1 mM MgCl2 and 100 mM NaCl. Purified protein was dialyzed in buffer containing 10% glycerol without imidazole prior to analysis. The enzyme was frozen in liquid nitrogen and stored permanently at -80°C.
Chain of S. schleiferi DXR enzyme (A0ABF7SXB4 entry or part of it): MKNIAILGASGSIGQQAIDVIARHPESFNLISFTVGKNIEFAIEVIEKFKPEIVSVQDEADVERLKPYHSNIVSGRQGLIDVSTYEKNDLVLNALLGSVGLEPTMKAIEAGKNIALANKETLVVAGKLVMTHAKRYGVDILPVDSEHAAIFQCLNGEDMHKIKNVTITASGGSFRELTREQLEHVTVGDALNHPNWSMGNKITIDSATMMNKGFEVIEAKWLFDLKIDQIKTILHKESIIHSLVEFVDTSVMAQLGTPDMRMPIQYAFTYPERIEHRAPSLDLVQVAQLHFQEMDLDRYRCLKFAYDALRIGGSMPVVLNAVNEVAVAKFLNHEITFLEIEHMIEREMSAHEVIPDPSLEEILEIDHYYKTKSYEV
Oxidation of NADPH to NADP^+ as a result of substrate turnover was monitored at 340 nm in a POLARstar Omega microplate reader (BMG Labtech)[73]. […] Reactions were initiated by the addition of DOXP after 15 min incubation of the reaction mixture without DOXP at 37°C. Absorption at 340 nm was measured continuously for up to 45 min. For Km [DOXP] determination, DOXP concentrations between 0 and 2 mM were tested at 0.5 mM NADPH. The linear range of enzyme activity was determined by varying the DXR concentration at 1 mM DOXP and 1 mM NADPH. IC50 assays were performed using the standard reaction conditions with the respective amount of DXR inhibitor added to obtain the given final concentrations. Data points from at least three independent replicates were analyzed by nonlinear regression using GraphPad Prism software. Slopes of changing absorbance values were converted to (μM DOXP)(mg enzyme)^-1 s ^-1 using a NADPH standard curve (data not shown). For the determination of the inhibitory constant Ki [FSM] of DXR, enzyme activity over a range of DOXP substrate concentrations between 0 and 2 mM was measured for FSM between 0 mM to 4 mM. Data points from at least three independent replicates were analyzed as described above.

The next assay deals with HepG2 cells. Also noted: method as in PMID 28827774, PMID 30192536. To be noted: previous work ref [42], [53]; read-out: IC50 against HepG2 cells; cited from earlier work.
The subject of assay [1] is S. schleiferi. In words: Growth inhibition assay of Staphylococcus species (OD600, 20 h). Conditions: read-out: S. schleiferi IC50.
Experimental: (§1) Overnight cultures were diluted 1:200 in LB media and grown at 37°C until the mid-logarithmic phase (OD600 = 0.5–0.8). Cultures were diluted in a 96-well plate to 1 x 10^5 in 150 μL LB media and treated with inhibitors at concentrations ranging from 2 nM to 100 μM. Bacteria were grown at 37°C for 20 h with cyclic shaking at 700 rpm in a FLUOstar Omega microplate reader (BMG Labtech). Growth was assessed over 20 h by measuring the OD600 at 20 min increments. The half-maximal inhibitory concentration (IC50) values were determined during logarithmic growth using GraphPad Prism software. All experiments were performed at least in triplicate and data reported represent the mean ± SEM.
The subject of assay [2] is S. pseudintermedius. The description is as above. Conditions: read-out: S. pseudintermedius IC50.
Experimental: as §1
For the next assay, the system named is S. aureus. The assay is described as above. To be noted: for IC50: Staphylococcus aureus, read-out: S. aureus IC50.
Assay [3] relates to S. schleiferi. The assay can be described thus: MIC by microtiter broth dilution, wild-type and FSM-resistant strains. To be noted: strains 3408, 4494, 7376, 8400.
Experimental: Minimum Inhibitory Concentration (MIC) assays were conducted by microtiter broth dilution in clear 96-well plates[78]. MEPicides were serially diluted in duplicate at concentrations ranging from 1.5 mM– 19.5 nM in 75 μL of LB broth. Bacteria cultured without drug were used as a positive control for growth. The plates were inoculated with 75 μL bacteria diluted to 1 x 10^5 CFU/mL in LB. Plates were incubated for 18–20 h while shaking at 200 RPM at 37°C. The plates were then visually inspected, and the MIC value was defined as the lowest concentration of MEPicide that prevented visual growth.
The subject of another assay is Escherichia coli. The assay can be described thus: microbe, parasite or virus in culture. Format: cell-based.
In another assay the test system is Klebsiella pneumoniae. The assay can be described thus: Growth inhibition assay for Gram-negative bacteria. Format: cell-based.
A further assay has as its system Salmonella typhimurium. In words: Growth inhibition assay for Gram-negative bacteria. Conditions: Salmonella enterica, strain 04-018-0254, mean ± SD. Format: cell-based.
The subject of the next assay is Shigella sonnei. In words: microbe, parasite or virus in culture. Format: cell-based. Conditions: mean ± SD.
For a further assay, the system named is Serratia marcescens. The assay can be described thus: Growth inhibition assay for Gram-negative bacteria. It is filed as cell-based. Conditions: strain 137.01, mean ± SD.
The test system of assay [4] is Burkholderia thailandensis. The assay can be described thus: microbe, parasite or virus in culture. It is filed as cell-based. To be noted: read-out: Burkholderia thailandensis IC50.
For assay [5], the system named is S. schleiferi. The assay can be described thus: Minimum bactericidal (MBC) assay, CFU after 24 h. Conditions: 1 x and 10 x IC50, 24 h, CFU/mL.
Experimental: (§2) Overnight cultures were diluted 1:200 in LB media and grown at 37°C until reaching mid-logarithmic phase of growth. […] Cultures were serially diluted in 1 X Dulbecco’s Phosphate Buffered Saline (PBS; Gibco) and plated on LB agar. Colonies were enumerated after overnight growth at 37°C. Values reflect the mean and standard deviations of at least three independent experiments.
(§3) Growth in CFU/mL of S. schleiferi and S. pseudintermedius after 24 h treatment is plotted against the respective treatment. Cultures were treated at 1 x IC50 concentration and/or 10x IC50 concentration of the inhibitors. Shown are the mean values + SD from at least three independent experiments.
The subject of assay [6] is S. pseudintermedius. The assay can be described thus: Minimum bactericidal (MBC) assay, CFU after 24 h. Conditions: 1 x and 10 x IC50, 24 h, CFU/mL.
Experimental: as §2, §3

Experimental for S. aureus: as §1

As for `O=CN(O)C/C=C/P(=O)(O)O` [Compound 3], the IC50 is 0.41 ± 0.11 µM on S. schleiferi DXR enzyme; over 50 µM in the assay with HepG2 cells; 4.17 ± 0.47 µM in the assay with S. schleiferi [1]; 4.31 ± 0.51 µM in the assay on S. pseudintermedius [2]; over 100 µM with S. aureus. Also, the “sensitivity of FSM^R glpT mutant S. schleiferi strains (MIC fold change vs WT)” value in the assay with S. schleiferi [3] is given as “cross-resistant”.

Take `CC(=O)N(O)C/C=C/P(=O)(OCOC(=O)C(C)(C)C)OCOC(=O)C(C)(C)C` [Compound 2]: the “inhibition of purified recombinant S. schleiferi DXR in vitro” value at S. schleiferi DXR enzyme (prodrug, uncleaved) is “poorly inhibit”. Also, the IC50 on S. schleiferi DXR enzyme (purified recombinant enzyme, mean ± SEM, read-out: S. schleiferi DXR enzyme IC50) is over 100 µM; in the assay on Escherichia coli (Escherichia coli, BW25113, mean ± SD), over 1000 µM; in the assay on Klebsiella pneumoniae (Klebsiella pneumoniae, ATCC43816, ATCC 43816, mean ± SD), over 100 µM; with Salmonella typhimurium it was over 100 µM; in the assay on Shigella sonnei it was over 100 µM; in the assay on Serratia marcescens, over 100 µM. Also, the IC50 is over 100 µM in assay [4]; over 100 µM with HepG2 cells; 0.1 ± 0.01 µM with S. schleiferi [1]; 0.26 ± 0.03 µM with S. pseudintermedius [2]; over 100 µM in the assay with S. aureus. Besides, in the assay on Escherichia coli, the “inhibition of growth of E. coli” value was “does not inhibit growth”. In the assay with Klebsiella pneumoniae, the “inhibition of growth of Klebsiella pneumoniae” value was “does not inhibit growth”. Also, in the assay with S. schleiferi [3], the “sensitivity of FSM^R glpT mutant S. schleiferi strains (MIC fold change vs WT)” value is on record as “remain sensitive”.

For the molecule `CC(=O)N(O)CCCP(=O)(O)O` [FR-900098], the IC50 was 1 ± 0.18 µM on S. schleiferi DXR enzyme, 41.1 ± 6.65 µM with S. schleiferi [1], 34.1 ± 6.54 µM in the assay with S. pseudintermedius [2] and over 100 µM with S. aureus. Also, the “mechanism-of-action on viable cells” value with S. schleiferi [5] and with S. pseudintermedius [6] was “bacteriostatic” throughout. The “inhibition of S. aureus growth” value with S. aureus is reported as “neither FSM nor FR-900098 inhibit S. aureus growth”.
